# Laboratory results: US9078851B2, “Composition for preventing or treating a spinal cord injury” (UNIVERSITY-INDUSTRY COOPERATION GROUP OF KYUNG HEE, priority 2009, dated 2015)
# How the values were obtained:
# Format in all cases: in vivo, rat
# [1] = test system: IL-10 expression in nerve cell; experiment: Immunofluorescence staining of IL-10 in nerve cells and microglia/macrophages after spinal cord injury; conditions: tail vein injection; one day after spinal cord injury
# Description: (§1) For the present experiment, male white mice (Sprague-Dawley 240-250 g, 7 weeks, 10 mice) were under general anesthetics by an intraperitoneal injection of Ketamin (80 mg/kg, Yuhan Corporation) and Rompun (7.4 mg/kg, Bayer Korea Corporation). Laminectomy was performed at spine T9-10 level to expose a spinal cord keeping intact dura. And then, rat was put on Spinal cord dropping device (NYU); spine processes at T8 and T11 sites were fixed by using a clamp, respectively; then, a rod (diameter 2 mm, weight 10 g) was dropped from 25 mm height vertical to dorsal part of spinal cord followed by suturing injury site muscle and skin. The rat of Sham-operated control group was performed only laminectomy at same area without damaging spinal cord injury (marked by ‘sham” in figures; hereinafter, the same as above).
# (§2) Substance P (marked by ‘SP’ in figures; hereinafter, the same as above) dissolved in saline of 5 nmol/kg concentration was injected through tail vein at immediately, 24 hours, and 48 hours after a spinal cord injury for experimental groups. At sham control group, same volume of saline (marked by ‘vehicle’ in figures; hereinafter, the same as above) without Substance P was injected at same time points. Operation were performed on an electric heating pad of 37° C., and then rat were transferred to cage after awake from the anesthetic. • (2) Preparation of Tissue […]
# [2] = test system: apoptosis of nerve cells and oligodendrocytes; experiment: TUNEL staining of apoptosis at spinal cord injury site; conditions: tail vein injection
# Description: as §1, §2
# caspase-3 = experiment: Western blot of cleaved caspase-3 in spinal cord tissue; conditions: tail vein injection, one day and five days after injury
# Description: as §1, with “above). […]” for “above).”
# (2) Substance P or saline (the same volume without Substance P) was injected to a tail vein of mice, respectively at immediately, 1 d, 2 ds after a spinal cord injury, using the same method as (1) of Example 1. […] The amounts of proteins in supernatant were determined by using BCA assay (Pierce). […] At this time, β-Tubulin was used as an inner comparing group, and each result were determined by performing four independent experiments.
substance,measurement,setting,value
Substance P,IL-10 expression in cells,[1],specifically expressed at a nerve cell
same,apoptosis of oligodendrocytes,[2]; five days after damaging,significantly decreased
same,apoptosis of nerve cells,[2]; one day after damaging,decreased
same,activation of caspase-3,caspase-3,significantly decreased
